# In ChEMBL document CHEMBL1201862, “PubChem BioAssay data set” (2004):
# “And” between values parts separate entries of the source, which are not always exact repeats. Equal entries are not always repeated.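 All cell lines were grown in 96-well plates and treated with compound for 48 hours. GI50 is the concentration that inhibits growth by half.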 The source made the active and inactive calls. No stated cut-off is given here; in the data, active = GI50 up to about 1.1 µM and inactive = higher.
# How the values were obtained:
# Assay in all cases: NCI tumour cell line growth inhibition, 48 h
# [1] = system: ACHN
# [2] = system: BT-549
# [3] = system: CCRF-CEM
# [4] = system: IGROV-1
# [5] = system: K562
# [6] = system: KM12
# [7] = system: LOX IMVI
# [8] = system: M14
# [9] = system: MDA-N
# [10] = system: OVCAR-4
# [11] = system: OVCAR-8
# [12] = system: PC-3
# [13] = system: RPMI-8226
# [14] = system: RXF 393
# [15] = system: SF-295
# [16] = system: SK-MEL-5
# [17] = system: SR
# [18] = system: SW-620
# [19] = system: UACC-62
# [20] = system: NCI/ADR-RES
SMILES,GI50 [1],GI50 [2],GI50 [3],GI50 [4],GI50 [5],GI50 [6],GI50 [7],GI50 [8],GI50 [9],GI50 [10],GI50 [11],GI50 [12],GI50 [13],GI50 [14],GI50 [15],GI50 [16],GI50 [17],GI50 [18],GI50 [19],GI50 [20]
O=C(c1ccc(Cl)cc1)c1cnc(Nc2ccccc2Cl)s1,18.9 µM (inactive),20.7 µM (inactive),> 100 µM (inactive),23.2 µM (inactive),> 100 µM (inactive),27.2 µM (inactive),36 µM (inactive),19.7 µM (inactive),21.8 µM (inactive),33.4 µM (inactive),29.2 µM (inactive),24.4 µM (inactive),> 100 µM (inactive),20.7 µM (inactive),21.5 µM (inactive),18.5 µM (inactive),> 100 µM (inactive),40.1 µM (inactive),21.5 µM (inactive),–
CC(C)Cc1cnc(CC(C)C)c(=O)[nH]1,> 100 µM (inactive),> 100 µM (inactive),> 100 µM (inactive),> 100 µM (inactive),> 100 µM (inactive),> 100 µM (inactive),> 100 µM (inactive),> 100 µM (inactive),> 100 µM (inactive),> 100 µM (inactive),> 100 µM (inactive),> 100 µM (inactive),0.705 µM (active),> 100 µM (inactive),> 100 µM (inactive),> 100 µM (inactive),> 100 µM (inactive),> 100 µM (inactive),> 100 µM (inactive),–
COc1ccccc1/C(=N\OCCC(=O)O)c1cccs1,> 100 µM (inactive),> 100 µM (inactive),> 100 µM (inactive),–,> 100 µM (inactive),> 100 µM (inactive),> 100 µM (inactive),–,> 100 µM (inactive),> 100 µM (inactive),> 100 µM (inactive),> 100 µM (inactive),> 100 µM (inactive),> 100 µM (inactive),> 100 µM (inactive),> 100 µM (inactive),–,> 100 µM (inactive),> 100 µM (inactive),> 100 µM (inactive)
COC(=O)C(=O)C(C(=O)C(=O)Nc1ccccc1C(=O)OC)c1nc2ccc(C(=O)c3ccccc3)cc2nc1O (stereo not drawn),52.6 µM (inactive),> 100 µM (inactive),–,62.8 µM (inactive),36.1 µM (inactive),21.7 µM (inactive),87.3 µM (inactive),> 100 µM (inactive),28.4 µM (inactive),24.9 µM (inactive),39.4 µM (inactive),40.4 µM (inactive),51.9 µM (inactive),33.4 µM (inactive),47.2 µM (inactive),53.7 µM (inactive),–,50 µM (inactive),> 100 µM (inactive),18.8 µM (inactive)
Fc1ccccc1/N=c1\oc2ccc(Br)cc2cc1-c1nc2ccccc2[nH]1,6.9 µM (inactive),7.93 µM (inactive),> 100 µM (inactive),8.95 µM (inactive),> 25.6 µM (inactive),> 20.7 µM (inactive),13.2 µM (inactive),11.2 µM (inactive),–,5.96 µM (inactive),9.23 µM (inactive),7.4 µM (inactive),28 µM (inactive),7.64 µM (inactive),5.48 µM (inactive),8.49 µM (inactive),> 25.6 µM (inactive),> 21.9 µM (inactive),12.8 µM (inactive),10 µM (inactive)
C[n+]1c2ccc(Cl)cc2nc2cc(-c3ccccc3)ccc21,18.9 µM (inactive),11.1 µM (inactive),60.7 µM (inactive),10 µM (inactive),7.13 µM (inactive),4.65 µM (inactive),5.69 µM (inactive),4.65 µM (inactive),–,18.5 µM (inactive),3.67 µM (inactive),10.5 µM (inactive),1.93 µM (inactive),26.1 µM (inactive),1.74 µM (inactive),6.68 µM (inactive),2.67 µM (inactive),4.7 µM (inactive),18.4 µM (inactive),33.2 µM (inactive)
CCn1cc(C(=O)O)c(=O)c2cc3c(cc21)S(=O)(=O)CC3,> 100 µM (inactive),> 100 µM (inactive),> 100 µM (inactive),> 100 µM (inactive),> 100 µM (inactive),> 100 µM (inactive),> 100 µM (inactive),> 100 µM (inactive),> 100 µM (inactive),> 100 µM (inactive),> 100 µM (inactive),> 100 µM (inactive),> 100 µM (inactive),> 100 µM (inactive),> 100 µM (inactive),> 100 µM (inactive),–,> 100 µM (inactive),> 100 µM (inactive),> 100 µM (inactive)
CC(=O)c1cccc(NC(=O)C(=O)NNc2nnc(S)n2N)c1,7.33 µM (inactive),2.34 µM (inactive),3.48 µM (inactive),8.61 µM (inactive),4.85 µM (inactive),11.1 µM (inactive),1.64 µM (inactive),1.89 µM (inactive),2.27 µM (inactive),10.1 µM (inactive),5.46 µM (inactive),3.27 µM (inactive),13.6 µM (inactive),10.4 µM (inactive),4.14 µM (inactive),1.21 µM (inactive),3.61 µM (inactive),7.73 µM (inactive),1.89 µM (inactive),–
COc1cc2c(cc1OC)C1=Cc3cc(OC)c(OC)cc3C(C)N1C=C2 (stereo not drawn),> 100 µM (inactive),34.6 µM (inactive),27.3 µM (inactive),> 100 µM (inactive),25.9 µM (inactive),74.8 µM (inactive),–,> 100 µM (inactive),51.5 µM (inactive),–,52 µM (inactive),12.3 µM (inactive),40 µM (inactive),57.4 µM (inactive),> 100 µM (inactive),38.4 µM (inactive),–,84.5 µM (inactive),75.7 µM (inactive),> 100 µM (inactive)
CC(=O)NC1C(CO)O[C@@H]2OC(C)(C)O[C@H]12 (stereo partly drawn),> 100 µM (inactive),> 100 µM (inactive),> 100 µM (inactive),> 100 µM (inactive),–,> 100 µM (inactive),> 100 µM (inactive),> 100 µM (inactive),> 100 µM (inactive),> 100 µM (inactive),> 100 µM (inactive),> 100 µM (inactive),> 100 µM (inactive),–,> 100 µM (inactive),–,–,> 100 µM (inactive),> 100 µM (inactive),> 100 µM (inactive)
CC(C)(C)OC/C=C(\Br)CO,> 100 µM (inactive),> 100 µM (inactive),> 100 µM (inactive),–,> 100 µM (inactive),41.6 µM (inactive),–,> 100 µM (inactive),> 100 µM (inactive),> 100 µM (inactive),> 100 µM (inactive),> 100 µM (inactive),> 100 µM (inactive),> 100 µM (inactive),> 100 µM (inactive),–,–,> 100 µM (inactive),> 100 µM (inactive),> 100 µM (inactive)
CCOC(=O)c1cc(NC(=O)N(CCC#N)CCN(C(=O)N[C@@H](Cc2ccccc2)C(=O)N[C@@H](CC(C)C)C(=O)NC)c2ccccc2)ccc1OC,25.3 µM (inactive),30.9 µM (inactive),89.9 µM (inactive),41.8 µM (inactive),–,> 100 µM (inactive),18.2 µM (inactive),99.5 µM (inactive),57.1 µM (inactive),44 µM (inactive),84.9 µM (inactive),49.4 µM (inactive),16.3 µM (inactive),23.1 µM (inactive),34.6 µM (inactive),42.3 µM (inactive),–,> 10 µM (inactive),4.76 µM (inactive),> 100 µM (inactive)
COC(=O)[C@H](Cc1ccccc1)NC(=O)[C@H](Cc1ccccc1)NC(=O)CN1C(=O)[C@@H]2C3C=CC(C3)[C@@H]2C1=O,16.7 µM (inactive) and 16.2 µM (inactive),16.6 µM (inactive) and 18.2 µM (inactive),–,16.5 µM (inactive) and 12.9 µM (inactive),–,20.7 µM (inactive) and 17.1 µM (inactive),18.3 µM (inactive) and 17.9 µM (inactive),19.9 µM (inactive) and 18.6 µM (inactive),16.5 µM (inactive) and 17.2 µM (inactive),16.1 µM (inactive) and 19 µM (inactive),14.8 µM (inactive) and 19.6 µM (inactive),15.6 µM (inactive) and 16.4 µM (inactive),21.6 µM (inactive) and 14.9 µM (inactive),20.5 µM (inactive) and 18.4 µM (inactive),18.5 µM (inactive) and 19.2 µM (inactive),18.2 µM (inactive) and 15 µM (inactive),–,16.5 µM (inactive) and 20.9 µM (inactive),16.4 µM (inactive) and 16.6 µM (inactive),33 µM (inactive) and 22.2 µM (inactive)
OB1OCc2ccccc21 [BENZOXABOROLE],–,> 100 µM (inactive),18 µM (inactive),35.2 µM (inactive),67.8 µM (inactive),65.9 µM (inactive),39 µM (inactive),55.3 µM (inactive),–,32.4 µM (inactive),31.1 µM (inactive),20 µM (inactive),18.2 µM (inactive),–,12.1 µM (inactive),46.9 µM (inactive),52.7 µM (inactive),30.7 µM (inactive),35.9 µM (inactive),22.3 µM (inactive)
COc1ccc(-c2oc3cc(OC)c(OC)c(OC)c3c(=O)c2OC)cc1OC [HEXAMETHOXYFLAVONE],> 100 µM (inactive),> 100 µM (inactive),> 100 µM (inactive),> 100 µM (inactive),> 100 µM (inactive),> 100 µM (inactive),> 100 µM (inactive),> 100 µM (inactive),> 100 µM (inactive),> 100 µM (inactive),> 100 µM (inactive),> 100 µM (inactive),–,> 100 µM (inactive),> 100 µM (inactive),53.8 µM (inactive),–,> 100 µM (inactive),> 100 µM (inactive),> 100 µM (inactive)
